These results are taken from patent US20180318383A1, “PEPTIDE HAVING NEURONAL LOSS PREVENTION AND REGENERATION EFFECTS, AND COMPOSITION CONTAINING SAME” (GEMVAX & KAEL CO., LTD., priority 2015, published 2018).

Data set [1] deals with NSCs. Description: NSC proliferation (BrdU and CFU assays). Format: cell-based, rat. The conditions noted are these: 48 hours, BrdU. The protocol:
NSCs were treated with different concentrations of PEP1 and 20 μM Aβ25-30 for 48 hours. Afterward, NSCs were cultured in bromodeoxyuridine (BrdU)-labeled media for 5 hours and observed using a kit. Cell division was evaluated by measuring absorbance at 370 nm and reference absorbance at 492 nm. All results were normalized based on a cell-free well.
A CFU assay was carried out by the following method. Briefly, 0.25×10^5 NSCs were plated in a 6-well plate, and treated with 20 μM Aβ25-30 and then with PEP1 at 1, 10 or 50 μM for 48 hours. The cells were washed with DPBS, and then the medium was exchanged with a fresh cell culture medium. Fourteen days later, the cells were washed again with DPBS, and stained with 0.5% crystal violet dissolved in methanol for 30 minutes at room temperature. Following staining, the plate was washed with DPBS and then dried. The number of colonies was observed using a stereoscopic microscope, and among these colonies, those smaller than 2 mm or faintly stained were removed.

In data set [2] the test system is NSCs. Description: Western blotting and immunostaining of intracellular proteins in NSCs. It is filed as cell-based, rat. From the text:
For western blotting, the following antibodies were used: Ki67 (1:200 Abcam), P85a (1:1000, Millipore), pAKT (ser 473, 1:500, Cell Signaling Technology), GSK-3b (ser 9, 1:1000. Santa Cruz Biotechnology), HSTF-1 (1:1000, Santa Cruz Biotechnology), anti-B cell lymphoma-2 (1:1000, Cell Signaling Technology), HMGB-1 (1:500, Cell Signaling Technology), Bax (1:1000, Cell Signaling Technology), Cytosolic cytochrome C (1:200, Cell Signaling Technology), Cleaved caspase 3 (Asp175, 1: 1000, Cell Signaling Technology), c-Myc (1: 1000, Cell Signaling Technology), GFP (1: 1000, Cell Signaling Technology), hTERT (1:500, Santa Cruz Biotechnology), and rTERT (1:500, Santa Cruz Biotechnology).
To confirm an intracellular signaling system, western blotting was performed after 48-hour treatment.
To obtain the mitochondria and a cytoplasmic protein, mitochondria/intracellular protein isolation kits were used (Abcam). All blots were observed using an ECL solution, and observed images were analyzed using an analysis program.
Immunostaining was carried out to confirm intracellular expression and locations. For immunostaining, the following antibodies were used: Ki67 (1:100 Abcam), rabbit anti-doublecortin (1 mg/mL; Abcam), rabbit anti-glial fibrillary acidic protein (GFAP) (1:5000; Abcam), rabbit anti-Tuj1 (1 mg/mL; Abcam), mouse anti-GalC (1 mg/mL; Millipore), and rabbit anti-HMGB1 (1:100; Cell Signaling Technology).
Data was observed using an Olympus fluorescence microscope, and suitable fluorescence was used.
In general terms: In western blotting, separated proteins are transferred to a membrane and probed.

The subject of data set [3] is primary cultured cortical nerve. Description: Intracellular signaling proteins in damaged neurons. It is filed as cell-based, rat. To be noted: Aβ25-35 + PEP1. The protocol:
A primary cultured cortical nerve was obtained from the cerebral cortex of the fetal rat on day 16 of the embryonic period. Briefly, the brain was rapidly removed from the rat, and placed in a petri dish containing cold phosphate-buffered physiological saline (HBSS). Single cells were isolated from the cerebral cortex, and added into a previously poly-L-lysine-coated Corning dish with a diameter of 100 mm, or a glass coverslip was placed in a 6- or 24-well plate. The cultured cells were cultured in DMEM (high glucose).
Two days after the cells were added, non-neuronal cells were removed through treatment of 5 μM cytosine arabinoside for 24 hours. Only the mature culture (7 days in the test tube) was used in this experiment. Approximately 79.7% of a group of neurons was obtained from the neurons of a primary cortex. […]

The subject of data set [4] is AD transgenic mice (3XTg-AD). Description: Passive avoidance test. It is filed as in vivo. The protocol:
To test the efficacy of PEP1 on AD, AD transgenic mice (3XTg-AD) were purchased from Jackson Laboratory. Genetic characteristics of the transgenic mice are as follows: B6; 129-Psen1tm1Mpm Tg(APPSwe, tauP301L)1Lfa/Mmjax. […] One week after mice were confirmed as pregnant, new mice were delivered and weaned for 3 weeks. Two weeks later, mature mice were obtained.
During the preliminary breeding and the entire period of the experiment, a temperature was maintained at 23±2° C. and a relative humidity was maintained at 60±10%, and then the mice were raised under a 12-hour dark/light cycle. Experimental animals were divided into five groups, and each group included 10 animals. The divided experimental groups are as follows. […]
The PEP1, physiological saline, donepezil and […], and then two months after the injection, cognitive/memory behavior tests (passive avoidance test and Y maze test) were performed to examine a degree of improvement in cognitive function and memory function. After the brain was extracted to separate the hippocampus, the amounts of amyloid beta in the hippocampus and the whole brain, and the amounts of an amyloid beta oligomer and NFT generated by tau hyperphosphorylation were determined by western blotting and immunostaining. […]

In another data set the test system is neuronal apoptosis. Description: Oxygen-glucose deprivation (OGD), in vitro model of ischemic stroke. Format: cell-based.

Turning to “EARPALLTSRLRFIPK (homo sapiens) [PEP1, hTERT-derived peptide consisting of 16 amino acids, telomerase location [611-626]]”, the “proliferation of NSCs” value with NSCs [1] (20 μM Aβ25-35 + PEP1 up to 100 μM, vs 20 μM Aβ25-35 only, CFU) is on record as “gradually increased”. For the same sequence, the proliferation entry with NSCs [1] (NSCs, PEP1 alone 0-200 μM, up to 100 μM) is “not influenced”. Besides, in the data set with NSCs [2] (20 μM Aβ25-35 + PEP1, 48 hours), the “apoptosis-associated proteins: Bax, cytoplasmic cytochrome C, cleaved caspase-3” value is on record as “significantly decreased”; the “ki67 (protein associated with proliferation ability)” value is on record as “concentration-dependently increased”; the “proliferation-associated proteins: P85a PI3K, pAKT (Ser 473), phosphorylated GSK3-3b (Ser 9), HSTF-1, cytoplasmic HMGB-1” value is “recovered”. In addition, the “HMGB1 expression in the cytoplasm” value with NSCs [2] (immunostaining, 20 μM Aβ25-35 + PEP1 co-treatment) is “concentration-dependently recovered”. Also, in data set [3], the apoptosis-associated proteins result was “a low amount” and the proliferation-associated proteins result is “a large amount”. For the same sequence, in data set [4] (3XTg-AD mice, treated from age 12 months, tested two months after injection, vs control and Donepezil), the “avoidance ability (passive avoidance test)” value is “excellent avoidance ability”. Further, the “time and frequency of staying in the bright room (passive avoidance test)” value in data set [4] (severe AD models, 20-month-old or older 3XTg-AD mice, PEP1 1 mg/kg s.c., vs physiological saline) is “increased”. In the data set with neuronal apoptosis, the “neuronal apoptosis caused by oxygen-glucose deprivation (OGD)” value was “inhibiting neuronal apoptosis”.
